This note sets out measurements from patent EP4775208A1, “USE OF PRMT5 INHIBITOR IN TREATMENT OF TUMORS OR CANCERS” (Apeiron Therapeutics (Hong Kong) Ltd., priority 2023, dated 2025).

What all share (assay type): cell-based
Experiment [1] deals with HCT-116 MTAP(-/-) deficient cells. The experiment is described as follows: Inhibition of proliferation of HCT-116 MTAP(-/-) deficient cells (Cell-Titer Glo). Particulars: 8 days. The gist of the method: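 Cells in log-phase growth, RPMI-1640 with 10% FBS, seeded and left overnight at 37°C, 5% CO2. Compound tested at 0–10,000 nM (10 points, 3-fold, 0.1% DMSO) for 8 days at 37°C, 5% CO2. Viability read by CellTiter-Glo luminescence.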

In experiment [2] the test system is U87MG MTAP(-/-) cells. The experiment is described as follows: Inhibition of proliferation of U87MG MTAP(-/-) cells (CellTiter-Glo). Particulars: cell proliferation, 6 days. Here is the method:
Test 7: Assay for Inhibitory Activity of Compounds against U87MG MTAP(-/-) Cell Proliferation
Materials and Cells: The U87MG MTAP(-/-) cell line was purchased from ATCC (USA). Cell culture media, fetal bovine serum (FBS), and penicillin-streptomycin were purchased from Thermo Fisher Scientific (USA). 384-well plates were purchased from PerkinElmer (USA). The CellTiter-Glo assay kit was purchased from Promega (USA).
Cell Culture: U87MG MTAP(-/-) cells were cultured in a medium supplemented with 10% fetal bovine serum (FBS) and 1% penicillin-streptomycin at 37°C with 5% CO2. Only cells in the logarithmic growth phase were used for experiments.
Cell Proliferation Inhibition Assay: The antiproliferative activity of the compounds against U87MG MTAP(-/-) cells was assessed using the CellTiter-Glo assay kit. Cell suspensions were adjusted to the appropriate density and seeded into 384-well plates at a volume of 40 µL per well, then incubated overnight at 37°C with 5% CO2. Compounds (40 nL) were added to each well to achieve final concentrations ranging from 0 to 10,000 nM (starting concentration 10,000 nM, 3-fold serial dilutions, 10 dose points), with a final DMSO concentration of […]. The cell plates were incubated at 37°C with 5% CO2 for 6 days. Subsequently, 40 µL of CellTiter-Glo reagent was added to measure cell viability. Paclitaxel was used as a control compound.

The subject of experiment [3] is HCT-116 MTAP wild-type cells. The experiment can be described thus: Inhibition of proliferation of HCT-116 MTAP wild-type cells (Cell-Titer Glo). Particulars: 8 days. The essentials: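 MTAP wild-type HCT-116 cells were seeded, cultured overnight and then exposed to compound from 10,000 nM down in a 10-point, 3-fold series (0.1% DMSO). Plates were incubated 8 days at 37°C, 5% CO2. Proliferation was read by Cell-Titer Glo viability luminescence.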

Some results are limits rather than exact numbers.

Regarding “(S)-4-amino-7-fluoro-N-methyl-N-(6-(1-me thyl-1H-pyrazol-4-yl) -2,3-dihydrobenzofura n-3-yl)imidazo[1,5-a] quinoxaline-8-carbox amide [Example 34]”, the half-maximal inhibitory concentration (IC50) in experiment [1] stood at 29.6 nM; in experiment [2] it was 179 nM; in experiment [3] it was 6570 nM.
`[2H]C([2H])([2H])N(C(=O)c1cc2c(cn1)nc(N)c1cncn12)[C@@H]1COc2cc(C(F)(F)F)ccc21` [Example 75, (S)-4-amino-N-(methyl-d3)-N-(6-(trifluoromethyl)-2,3-dihydrobenzofuran-3-yl)imidazo[1,5-a]pyrido[3,4-e]pyrazine-8-carb oxamide]: the concentration for half-maximal inhibition (IC50) in experiment [1] (Homo sapiens, HCT-116, 192 h) was determined as 7.3 nM; in experiment [2] (Homo sapiens, U-87 MG, 144 h), 72.1 nM; in experiment [3] (Homo sapiens, HCT-116, 192 h), 1170 nM.
For the compound `CN(C(=O)c1ccc2nc(N)c3cncn3c2c1)[C@@H]1COc2cc(C(F)(F)F)ccc21` [Example 79, (S)-4-amino-N-methy 1-N-(6-(trifluoromethyl)-2,3-dihydrobenzofuran-3-yl)imidazo[1,5-a]quinoxaline-8-carbo xamide-3-d], the values for the IC50 in experiment [1], in experiment [2] and in experiment [3] were 5.6 nM, 83.3 nM and 1300 nM, respectively.
For the compound `Cc1cc2nc(N)c3cncn3c2cc1C(=O)N(C)[C@@H]1COc2cc(C(F)(F)F)ccc21` [Example 15, (S)-4-amino-N,7-dime thyl-N-(6-(trifluoromethyl)-2,3-dihydrobenzofuran-3-yl)imidazo[1 ,5-a]quinoxaline-8-car boxamide], the IC50 in experiment [1] (Homo sapiens, HCT-116, 192 h) stood at 3.5 nM; in experiment [2] (Homo sapiens, U-87 MG, 144 h), 19.8 nM; in experiment [3] (Homo sapiens, HCT-116, 192 h), 282 nM.
As to `CCN(C(=O)c1ccc2nc(N)c3cncn3c2c1)[C@@H]1COc2cc(C(F)(F)F)ccc21` [Example 55, (S)-4-amino-N-ethyl-N-(6-(trifluoromethyl) -2,3-dihydrobenzofuran-3-yl)imidazo[1,5-a] quinoxaline-8-carbox amide], the IC50 in experiment [1] (Homo sapiens, HCT-116, 192 h) amounted to 11.8 nM; in experiment [2] (Homo sapiens, U-87 MG, 144 h) it was 74.9 nM; in experiment [3] (Homo sapiens, HCT-116, 192 h), 1220 nM.
Turning to `CN(C(=O)c1ccc2nc(N)c3cncn3c2c1)[C@@H]1COc2cc(Br)ccc21` [Example 3, (S)-4-amino-N-(6-bromo-2,3-dihydrobenzof uran-3-yl)-N-methyli midazo[1,5-a]quinoxaline-8-carboxamide], the half-inhibitory concentration (IC50) amounted to 23.4 nM in experiment [1] (Homo sapiens, HCT-116, 192 h) and 2250 nM in experiment [3] (Homo sapiens, HCT-116, 192 h).
On the same counts, the results for `CN(C(=O)c1ccc2nc(N)c3cncn3c2c1)[C@@H]1COc2cc(S(C)(=O)=O)ccc21` [Example 28, (S)-4-amino-N-methy 1-N-(6-(methylsulfony 1)-2,3-dihydrobenzofuran-3-yl)imidazo[1,5-a]quinoxaline-8-carbo xamide] are 321 nM and greater than 10000 nM.
As for “(R)-4-amino-N-methy 1-N-(6-(pentafluoro-16 -sulfaneyl)-2,3-dihydr obenzofuran-3-yl)imi dazo[1,5-a]quinoxalin e-8-carboxamide [Example 103]”, the 50% inhibitory concentration (IC50) in experiment [1] was found to be 931 nM; in experiment [3], 6260 nM.
On to `CN(C(=O)c1ccc2nc(N)c3cncn3c2c1)[C@@H]1COc2cc(CF)ccc21` [Example 52, (S)-4-amino-N-(6-(fluoromethyl)-2,3-dihydrobenzofuran-3-yl)-N-methylimidazo[1,5-a] quinoxaline-8-carbox amide], for which the half-maximal inhibitory concentration (IC50) in experiment [1] (Homo sapiens, HCT-116, 192 h) is 123 nM; in experiment [3] (Homo sapiens, HCT-116, 192 h) it was greater than 10000 nM.
On the same counts, the results for `CC1OC[C@@H](N(C)C(=O)c2cc3c(cn2)nc(N)c2cncn23)c2ccc(Br)cc21` (stereo partly drawn) [Example 17, 4-amino-N-((4S)-7-bromo-1-methylisochroman-4-yl)-N-methyli midazo[1,5-a]pyrido[3,4-e]pyrazine-8-carb oxamide] are 4.2 nM and 243 nM.
On the same counts, the results for `CN(C(=O)c1ccc2nc(N)c3nncn3c2c1)[C@@H]1COc2cc(C(F)(F)F)ccc21` [Example 48, (S)-4-amino-N-methy 1-N-(6-(trifluoromethy 1)-2,3-dihydrobenzofuran-3-yl)-[1,2,4]triazo lo[4,3-a]quinoxaline-8-carboxamide] are greater than 3000 nM and greater than 3000 nM.
`CN(C(=O)c1cc2c(cc1Cl)nc(N)c1cncn12)[C@@H]1COc2ccc(F)cc21` [Example 63, (S)-4-amino-7-chloro-N-(5-fluoro-2,3-dihydrobenzofuran-3-yl)-N-methylimidazo[1,5-a] quinoxaline-8-carbox amide]: the half-maximal inhibitory concentration (IC50) in experiment [1] (Homo sapiens, HCT-116, 192 h) was found to be 46.8 nM; in experiment [3] (Homo sapiens, HCT-116, 192 h), 3260 nM.
`CN(C(=O)c1ccc2nc(N)c3cncn3c2c1)[C@@H]1COc2cc(S(F)(F)(F)(F)F)ccc21` (single isomer, unassigned) [Example 104]: in experiment [2] (Homo sapiens, U-87 MG, 144 h), the IC50 stood at 28.8 nM.
On to `Nc1nc2cc(F)c(C(=O)N(C3CC3)C3COc4cc(N5CCOCC5)ccc43)cc2n2cncc12` (stereo not shown) [Example 121, 4-amino-N-cyclopropyl-7-fluoro-N-(6-mor pholino-2,3-dihydrobenzofuran-3-yl)imidaz o[1,5-a]quinoxaline-8-carboxamide], for which the IC50 in experiment [1] (Homo sapiens, HCT-116, 192 h) was 73.7 nM; in experiment [3] (Homo sapiens, HCT-116, 192 h), greater than 10000 nM.
`CN(C(=O)c1cc2c(cc1F)nc(N)c1cncn12)[C@@H]1CCOc2cc(C(F)(F)F)ccc21` [Example 60, (R)-4-amino-7-fluoro-N-methyl-N-(7-(trifluoromethyl)chroman-4-yl)imidazo[1,5-a]qui noxaline-8-carboxamide]: the 50% inhibitory concentration (IC50) came out at 66.8 nM in experiment [1] (Homo sapiens, HCT-116, 192 h) and 7070 nM in experiment [3] (Homo sapiens, HCT-116, 192 h).
For `CN(C(=O)c1ccc2nc(N)c3c(C(N)=O)ncn3c2c1)[C@@H]1COc2cc(C(F)(F)F)ccc21` [Example 132, (S)-4-amino-N8-methyl-N8-(6-(trifluoromethyl)-2,3-dihydrobenzofuran-3-yl)imidazo[1,5-a]quinoxaline-3,8-dicarboxamide], the IC50 is greater than 3000 nM in experiment [1] (Homo sapiens, HCT-116, 192 h) and greater than 10000 nM in experiment [3] (Homo sapiens, HCT-116, 192 h).
On the same counts, the results for `CN(C(=O)c1ccc2nc(N)c3cncn3c2c1)C1COCc2ccc(C(F)(F)F)cc21` (stereo not shown) [Example 8, 4-amino-N-methyl-N-(6-(trifluoromethyl)isochroman-4-yl)imidaz o[1,5-a]quinoxaline-8-carboxamide] are 106 nM and 6480 nM.
Regarding `CN(C(=O)c1ccc2nc(N)c3cc(F)cn3c2c1)[C@@H]1COc2cc(C(F)(F)F)ccc21` [Example 42, (S)-4-amino-2-fluoro-N-methyl-N-(6-(trifluoromethyl)-2,3-dihydrobenzofuran-3-yl)pyrr olo[1,2-a]quinoxaline-8-carboxamide], the IC50 in experiment [1] (Homo sapiens, HCT-116, 192 h) was 660 nM; in experiment [3] (Homo sapiens, HCT-116, 192 h), 5460 nM.
For the compound “(R)-4-amino-N-cyclo propyl-N-(6-(trifluoro methyl)-2,3-dihydrob enzofuran-3-yl)imidaz o[1,5-a]quinoxaline-8 -carboxamide [Example 83]”, the 50% inhibitory concentration (IC50) in experiment [1] came out at 2640 nM; in experiment [3], 4700 nM.
Consider `CN(C(=O)c1ccc2nc(N)c3cncn3c2c1)[C@H]1CSc2cc(C(F)(F)F)ccc21` (single isomer, unassigned) [Example 101], for which the half-inhibitory concentration (IC50) was 2190 nM in experiment [1] (Homo sapiens, HCT-116, 192 h) and greater than 10000 nM in experiment [3] (Homo sapiens, HCT-116, 192 h).
On to `CC1OC[C@@H](N(C)C(=O)c2ccc3nc(N)c4cncn4c3c2)c2ccc(F)cc21` (stereo partly drawn) [Example 9, 4-amino-N-((4S)-7-fluoro-1-methylisochroman-4-yl)-N-methyli midazo[1,5-a]quinoxa line-8-carboxamide], for which the IC50 in experiment [1] (Homo sapiens, HCT-116, 192 h) turned out to be 41.1 nM; in experiment [3] (Homo sapiens, HCT-116, 192 h), 2140 nM.
